Source: patent publication US10183011B2, “Anti-depression compounds” (Board of Regents of the University of Texas System, priority 2009, dated 2019)
Entries after “also recorded” stand apart in the source; their conditions may differ.

Tests used:
[1] = tested on: neural precursor cells in the subgranular zone of the dentate gyrus; experiment: In vivo pro-neurogenic efficacy/neuroprotection assay: intracerebroventricular infusion, BrdU incorporation in the dentate gyrus; design: species or system mouse (C57/Bl6); settings: direct administration into the brain via Alzet minipumps for one week, 10 μM unless stated
Procedure: Compounds were evaluated for pro-neurogenic efficacy/neuroprotection in our standard in vivo assay at 10 μM concentration in four 12 week old adult male C57/Bl6 mice.
In an effort to identify compounds that might stimulate the birth of new neurons, or protect newborn neurons from cell death, a library of 1,000 compounds was screened using an in vivo assay. In the initial screen, compounds were randomly pooled into groups often and administered intracerebroventricularly at a constant rate over seven days into the left lateral ventricle of living mice via Alzet osmotic mini-pumps. Compounds were administered at a concentration of 10 μM for each molecule, making a total solute concentration of 100 μM. After seven days of infusion at a constant rate of 0.5 μL/hour, a total of 84 μL of volume will have left the pump (0.00084 μMoles) and entered the cerebrospinal fluid. The average volume of a brain from a 12 week old male, C57/B6 mouse in our study is 500 mm^3. […] Under these conditions, at the end of one week of infusion each compound would be present at 1.7 μMolar concentration. Since the actual amount of chemical compound in the brain is likely to be only a fraction of this predicted level, it is reasonable to estimate that compounds were administered at mid to low-nanomolar concentrations.
During compound infusion, animals were intraperitoneally (IP) injected daily with the thymidine analog, bromodeoxyuridine (BrdU), as a means of scoring the birth and survival of proliferating neural precursor cells in the hippocampus. Because both social interaction and voluntary exercise are known to stimulate hippocampal neurogenesis, mice were housed individually without access to running wheels throughout the screening period. Following the week-long period of compound administration, animals were perfused and sacrificed. Dissected brain tissue was fixed, embedded, sectioned, stained with antibodies to BrdU, and evaluated by light microcopy as a means of quantifying neurogenesis and survival of newborn neural precursor cells localized to the subgranular layer of the dentate gyrus on the brain hemisphere contralateral to the side of mini-pump cannulation. Every fifth section throughout the entire rostral-caudal extent of the hippocampus was analyzed, and the total number of BrdU+ cells was normalized against the measured volume of the dentate gyrus. Because both increased proliferation and survival of newborn neurons are important screening parameters, the screen was conducted over seven days in order to cast a wide net to detect molecules that might augment either process. […] Intracranial infusions of either fibroblast growth factor 2 (FGF-2) or artificial cerebral spinal fluid (aCSF) vehicle via the same, week-long protocol were employed as positive and negative controls. There was no difference in the number of BrdU-labeled cells in the dentate gyrus between mice subjected to surgical pump implantation and infusion with vehicle, and mice having had no surgery (FIG. 2). This confirmed the validity of the in vivo approach to assess the ability of intracerebroventricularly infused compounds to enhance hippocampal neurogenesis in the contralateral hemisphere.
In order to further study Example 45 Compound, an in vivo structure activity relationship (SAR) study was conducted using 37 chemical derivatives of the compound for pro-neurogenic activity via direct administration into the brain of adult mice via Alzet minipumps. Compounds were administered for one week at 10 uM into 4 mice per compound, along with daily IP injections of BrdU. Following compound administration, animals were perfused, sacrificed and subjected to sectioning, staining and light microscopy in order to monitor hippocampal neurogenesis localized to the subgranular layer of the dentate gyrus. Roughly 10% of the variant compounds retained pro-neurogenic activity indistinguishable from the parent compound. […]

SNc dopaminergic neurons = experiment: MPTP-toxicity to SNc dopaminergic neurons, treatment started 24 hours after the last MPTP dose; assay type: in vivo, mouse (C57Bl/6); settings: new analogs, 10 mice for each compound
Procedure: FIG. 29A and FIG. 29B. Neuroprotective efficacy of P7C3 and P7C3A20 from MPTP-toxicity to SNc dopaminergic neurons. FIG. 29A—Test compounds were evaluated by dose response assay for their ability to block MPTP-neurotoxicity in the SNc. […] VEH group contained 30 animals: 15 animals that received the P7C3A20/P7C3 vehicle, and 15 animals that received Dimebon vehicle (saline). […] Representative immunohistochemical pictures of TH-staining in the SNc are shown below the graph. Dosing is expressed as total mg/day, and was administered intraperitoneally in divided doses twice daily. Data are expressed as mean±SEM. […] P7C3A20 does so with greater effect, and Dimebon offers no protection. Striatal sections were obtained from the same mice used in FIG. 2, and compound treatment groups are from mice that received a dose of 20 mg/kg/d.
We compared the protective efficacy of our agents in the Tatton and Kish model of MPTP administration, which induces prolonged apoptotic death of SNc dopaminergic neurons lasting about 3 weeks after a short course of daily MPTP administration. Mice were treated daily for 5 days with 30 mg/kg/day free base MPTP. On the sixth day, 24 hours after receiving the fifth and final dose of MPTP, daily treatment with P7C3, P7C3A20, Dimebon or vehicle was initiated. […] Dose-response studies were conducted in which mice received twice daily doses of each compound (or vehicle) for the ensuing 21 days (FIG. 29A). […] At the end of the 21 day treatment period, mice were sacrificed by transcardial perfusion with 4% paraformaldehyde, and fixed brains were sectioned through the striatum and SNc at 30 μM intervals. Every fourth section (spaced 120 μM apart) was stained with antibodies specific to tyrosine hydroxylase (TH) (Abcam, rabbit anti-TH, 1:2500). The TH enzyme catalyzes the conversion of the amino acid L-tyrosine to L-3,4-dihydroxyphenylalanine (L-DOPA), which serves as the precursor for dopamine. TH staining thus provides a means to immunohistochemically identify dopaminergic neurons. By counting the number of TH+ cells in the SNc, we were able to assess the neuroprotective efficacy of the three chemicals following MPTP exposure. All microscopic analysis was performed by two investigators, blind to treatment group.
15 adult male C57Bl/6 mice were individually housed for one week and then injected daily for 5 days with 30 mg/kg/day (i.p.) free base MPTP (Sigma). On day 6, 24 hours after receiving the fifth and final dose of MPTP, daily treatment with P7C3, P7C3A20, Dimebon or vehicle was initiated. Mice were housed in disposable caging, and protective gear and precautions were implemented for handling MPTP in accordance with UT Southwestern Medical Center policy. Dose response studies were conducted in which mice received twice daily doses of each compound (or vehicle) by intraperitoneal injection for the following 21 days, after which mice were sacrificed by transcardial perfusion with 4% paraformaldehyde. Brains were dissected, fixed overnight in 4% paraformaldehyde, and cryoprotected in sucrose for freezing by standard procedures. Frozen brains were sectioned through the striatum and SNc at 30 uM intervals, and every fourth section (spaced 120 μM apart) was stained with antibodies directed against tyrosine hydroxylase (TH) (Abcam, rabbit anti-TH, 1:2500). Diaminobenzidine was used as a chromagen, and tissue was counter-stained with hematoxylin to aid in visualization of the neuroanatomy. Images were analyzed with a Nikon Eclipse 90i motorized research microscope with Plan Apo lenses coupled with Metamorph Image Acquisition software (Nikon). TH+ neurons were counted with Image J software (NIH) in every section by 2 blinded investigators and results were averaged and multiplied by the sectioning interval to determine the total number of TH+ neurons per SNc.

[2] = tested on: hippocampal neurogenesis in the DG; experiment: Comparison of P7C3 compounds and antidepressant drugs: DG BrdU labeling after i.c.v. infusion; assay type: in vivo, mouse; settings: 10 μM i.c.v. for 7 days
Description: The neuroprotective efficacies of both P7C3 and P7C3-A20 were next compared to currently marketed antidepressant medications, using screening conditions identical to those by which P7C3 was originally discovered. This experiment was based on the antidepressant actions of P7C3 and P7C3-A20 characterized here, and the dependence on hippocampal neurogenesis for behavioral efficacy of some marketed antidepressant medications in mice.
Proneurogenic efficacies in the DG of P7C3 and P7C3A20 were compared to those of vehicle (artificial cerebrospinal fluid) and several marketed antidepressant compounds (Sigma-Aldrich, St. Louis, Mo.) according to established methods. In brief, mice were housed individually in cages without running wheels or any form of environmental enrichment, in order to create an environment predicted to have as low of a baseline level of hippocampal neurogenesis as possible. Compounds (10 μM, i.c.v.) were administered for 7 days via subcutaneously implanted Alzet osmotic minipumps connected to a cannula directed into the left lateral ventricle, with implantation day designated as day 0. Starting on day 1, mice also received daily injections of BrdU (50 mg/kg, i.p.) at 9 am daily, for 6 days. Twenty four hours after the sixth BrdU injection, mice were transcardially perfused as described above.

| SMILES | pro-neurogenic activity in the in vivo hippocampal neurogenesis assay [1] | activity in the MPTP protection assay (SNc dopaminergic neurons) | other results |
| --- | --- | --- | --- |
| O[C@H](COc1ccccc1)Cn1c2ccc(Br)cc2c2cc(Br)ccc21 [Example P7C3S41] | neuroprotective activity in both assays resides exclusively in the S enantiomer; also recorded: potency equal to or greater than P7C3 in both in vivo assays | neuroprotective activity in both assays resides exclusively in the S enantiomer; also recorded: potency equal to or greater than P7C3 in both in vivo assays | – |
| CNCCC=C1c2ccccc2CCc2ccccc21 [nortriptyline, nortrypline] | – | – | increase of DG neurogenesis (BrdU labeling) over vehicle [2]: did not affect the magnitude of neurogenesis |
| Fc1ccc([C@@H]2CCNC[C@H]2COc2ccc3c(c2)OCO3)cc1 [paroxetine] | – | – | increase of DG neurogenesis (BrdU labeling) over vehicle [2]: did not affect the magnitude of neurogenesis |
| COc1ccc(C(CN(C)C)C2(O)CCCCC2)cc1 (centres unmarked) [venlafaxine] | – | – | increase of DG neurogenesis (BrdU labeling) over vehicle [2]: did not affect the magnitude of neurogenesis |
| OC(COc1ccccc1)Cn1c2ccc(Br)cc2c2cc(Br)ccc21 (centres unmarked) [Example P7C3S40] | neuroprotective activity in both assays resides exclusively in the S enantiomer | neuroprotective activity in both assays resides exclusively in the S enantiomer | – |
| COc1cccc(NCC(O)Cn2c3ccc(Br)cc3c3cc(Br)ccc32)c1 (single isomer, unassigned; (-)) [(−) (levorotatory) enantiomer of 1-(3,6-Dibromo-9H-carbazol-] | lower activity | – | – |
| COc1cccc(NCC(O)Cn2c3ccc(Br)cc3c3cc(Br)ccc32)c1 (single isomer, unassigned; (-)) [(−) enantiomer of Example 62 Compound, 1-(3,6-Dibromo-9H-carbazol-9-yl)-3-(3-methoxyphenylamino)-propan-2-ol] | displayed diminished activity | – | – |
| CC(NC(C)(C)C)C(=O)c1cccc(Cl)c1 (centres unmarked) [bupropion] | – | – | increase of DG neurogenesis (BrdU labeling) over vehicle [2]: about 49% |
| COc1cccc(NCC(O)Cn2c3ccc(Br)cc3c3cc(Br)ccc32)c1 (single isomer, unassigned; (+)) [(+) (dextrorotatory) enantiomer of 1-(3,6-Dibromo-9H-carbazo] | higher activity | – | – |
| COc1cccc(NCC(C)(O)Cn2c3ccc(Br)cc3c3cc(Br)ccc32)c1 (centres unmarked) [Example P7C3-S54] | retain neuroprotective activity in both assays | retain neuroprotective activity in both assays | – |
| NNCCc1ccccc1 [phenelzine] | – | – | increase of DG neurogenesis (BrdU labeling) over vehicle [2]: ~52% |
| OC(CNc1ncccn1)Cn1c2ccc(Br)cc2c2cc(Br)ccc21 (centres unmarked) [Example P7C3-S8] | devoid of activity in both assays | devoid of activity in both assays | – |
| OC(CSc1ccccc1)Cn1c2ccc(Br)cc2c2cc(Br)ccc21 (centres unmarked) [Example P7C3-S7] | active in both | active in both | pro-neurogenic activity in the in vivo hippocampal neurogenesis assay ([1]; listed as P7C3S7): potency equal to or greater than P7C3 in both in vivo assays; activity in the MPTP protection assay (SNc dopaminergic neurons; listed as P7C3S7): potency equal to or greater than P7C3 in both in vivo assays |
| COc1cccc(NCC(F)Cn2c3ccc(Br)cc3c3cc(Br)ccc32)c1 (single isomer, unassigned) [Example 144a, N-(3-(3,6-dibromo-9H-carbazol-9-yl)-2-fluoropropyl)-3-methoxyaniline] | more active than P7C3-S114 | – | – |
| Cc1cc(C)n(CC(O)Cn2c3ccc(Br)cc3c3cc(Br)ccc32)n1 (centres unmarked) [Example P7C3-S25] | active in both | active in both | – |
| COc1cccc(NCC(O)Cn2c3ccc(Br)cc3c3cc(Br)ccc32)c1 (centres unmarked) [Example 62 Compound, 1-(3,6-Dibromo-9H-carbazol-9-yl)-3-(3-methoxyphenylamino)-propan-2-ol] | activity comparable to Example 45 Compound; also recorded: retained robust activity | – | – |
| O=C(O)Cn1c2ccc(Br)cc2c2cc(Br)ccc21 [Example P7C3-S165] | neuroprotection was observed in both assays | neuroprotection was observed in both assays | – |
